Results reported in patent publication US8871796B2, “Diaryl ether derivatives as notch sparing gamma secretase inhibitors” (Merck Sharp & Dohme Corp., priority 2009, dated 2014).
Where two headings read alike, the source gives them in different places.

Experiment: APP processing: AlphaLisa assay of secreted Aβ40 and Aβ42 from SP4CT cells
Type: cell-based
Settings: Homo sapiens, SH-SY5Y cells expressing amyloid β protein (SP4CT cells)
In short: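 Media from compound-treated SP4CT cells (SH-SY5Y expressing amyloid β protein) was assayed by AlphaLisa. Donor beads carried biotinylated 4G8 anti-Aβ antibody; acceptor beads carried G210 (Aβ40) or 12F4 (Aβ42) in separate plates, with luminescence proportional to peptide abundance.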

[1] = read-out: IC50, inhibition of production of Aβ40 peptide
[2] = read-out: IC50, inhibition of production of Aβ42 peptide

With CCn1nc(-c2cccc(C(C)(C)NS(=O)(=O)CC(F)(F)F)c2)cc1Oc1ccc(CNc2ccccc2)cc1 [Example 84, N-[1-(3-{5-[4-(anilinomethyl)phenoxy]-1-ethyl-1H-pyrazol-3-yl}phenyl)-1-methylethyl]-2,2,2-trifluoroethanesulfonamide] the IC50 [1] was under 200 nM and the IC50 [2] was under 200 nM.
CCn1nc(-c2cccc(C(C)(C)NS(=O)(=O)CC(F)(F)F)c2)cc1Oc1ccc(-c2cnco2)cc1 [Example 76, N-[1-(3-{1-ethyl-5-[4-(1,3-oxazol-5-yl)phenoxy]-1H-pyrazol-3-yl}phenyl)-1-methylethyl]-2,2,2-trifluoroethanesulfonamide] gave an IC50 [1] of under 200 nM and an IC50 [2] of under 200 nM.
CCn1nc(-c2cccc(C(C)(C)NS(=O)(=O)CC(F)(F)F)c2)cc1Oc1ccc(CNc2ccon2)cc1 [Example 83, N-{1-[3-(1-ethyl-5-{4-[(isoxazol-3-ylamino)methyl]phenoxy}-1H-pyrazol-3-yl)phenyl]-1-methylethyl}-2,2,2-trifluoroethanesulfonamide] showed an IC50 [1] of under 200 nM and an IC50 [2] of under 200 nM.
Molecule O=S(=O)(CC(F)(F)F)NC1(c2cccc(-c3cc(Oc4ccc(C(F)(F)F)cc4)n(CC4CCCO4)n3)c2)COC1 (centres unmarked) [Example 138, N-(3-{3-[5-(4-trifluoromethylphenoxy)-1-(tetrahydrofuran-2-ylmethyl)-1H-pyrazol-3-yl]phenyl}oxetan-3-yl)-2,2,2-trifluoroethanesulfonamide] has an IC50 [1] of under 200 nM and an IC50 [2] of under 200 nM.
Work on CCCNS(=O)(=O)NC(C)(C)c1cccc(-c2cc(Oc3ccc(C(F)(F)F)cc3)n(CC)n2)c1 [Example 8, N-[1-(3-{1-ethyl-5-[4-(trifluoromethyl)phenoxy]-1H-pyrazol-3-yl}phenyl)-1-methylethyl]-N′-propylsulfamide] yielded an IC50 [1] of under 200 nM and an IC50 [2] of under 200 nM.
In the case of CCn1nc(-c2cccc(C3(NS(=O)(=O)NCC(F)(F)F)CC3)c2)cc1Oc1ccc(C(F)(F)F)cn1 [Example 41, N-{1-[3-(1-ethyl-5-{[5-(trifluoromethyl)pyridin-2-yl]oxy}-1H-pyrazol-3-yl)phenyl]cyclopropyl}-N′-(2,2,2-trifluoroethyl)sulfamide], the IC50 [1] is reported as under 200 nM and the IC50 [2] is reported as under 200 nM.
In the case of CCn1nc(-c2cccc(C(C)(C)NS(=O)(=O)CC3CCC3)c2)cc1Oc1ccc(C(F)(F)F)cc1 [Example 2, 1-cyclobutyl-N-[1-(3-{1-ethyl-5-[4-(trifluoromethyl)phenoxy]-1H-pyrazol-3-yl}phenyl)-1-methylethyl]methanesulfonamide], the IC50 [1] is reported as under 200 nM and the IC50 [2] is reported as under 200 nM.
In the case of CCn1nc(Oc2ccc(C(F)(F)F)cc2)cc1-c1cccc(C(C)(C)NS(=O)(=O)N(C)C)c1 [Example 25, N′-[1-(3-{1-ethyl-3-[4-(trifluoromethyl)phenoxy]-1H-pyrazol-5-yl}phenyl)-1-methylethyl]-N,N-dimethylsulfamide], the IC50 [1] is reported as under 200 nM and the IC50 [2] is reported as under 200 nM.
Cc1cc(Cn2nc(-c3cccc(C4(NS(=O)(=O)CC(F)(F)F)COC4)c3)cc2Oc2ccc(C(F)(F)F)cc2)on1 [Example 137, N-(3-{3-[5-(4-trifluoromethylphenoxy)-1-(5-methyl-1,2-isoxazol-3-ylmethyl)-1H-pyrazol-3-yl]phenyl}oxetan-3-yl)-2,2,2-trifluoroethanesulfonamide] showed an IC50 [1] of under 200 nM and an IC50 [2] of under 200 nM.
Work on CCn1nc(-c2cccc(C(C)(C)NS(=O)(=O)CC(F)(F)F)c2)cc1Oc1ccc(CNCC2(C)CCCO2)cc1 (centres unmarked) [Example 90, N-[1-(3-{1-ethyl-5-[4-({[(2-methyltetrahydrofuran-2-yl)methyl]amino}methyl)phenoxy]-1H-pyrazol-3-yl}phenyl)-1-methylethyl]-2,2,2-trifluoroethanesulfonamide] yielded an IC50 [1] of under 200 nM and an IC50 [2] of under 200 nM.
Work on CCn1nc(-c2cccc(C(C)(C)NS(=O)(=O)CC(F)(F)F)c2)cc1Oc1ccc(C=O)cc1 [Example 61, N-(1-{3-[1-ethyl-5-(4-formylphenoxy)-1H-pyrazol-3-yl]phenyl}-1-methylethyl)-2,2,2-trifluoroethanesulfonamide] yielded an IC50 [1] of under 200 nM and an IC50 [2] of under 200 nM.
For CCn1nc(Oc2ccc(C(F)(F)F)cc2)cc1-c1ccc2c(c1)CC(NS(=O)(=O)NCC(C)C)C2 (centres unmarked) [Example 124, N-(5-{1-ethyl-3-[4-(trifluoromethyl)phenoxy]-1H-pyrazol-5-yl}-2,3-dihydro-1H-inden-2-yl)-N′-isobutylsulfamide], the IC50 [1] was under 200 nM and the IC50 [2] was under 200 nM.
In the case of O=S(=O)(CC(F)(F)F)NC1(c2cccc(-c3cc(Oc4ccc(C(F)(F)F)cc4)n(CC4CCCCO4)n3)c2)COC1 (centres unmarked) [Example 140], the IC50 [1] is reported as under 200 nM and the IC50 [2] is reported as under 200 nM.
For CCn1nc(-c2cccc(C3(NS(=O)(=O)CC4CCC4)CC3)c2)cc1Oc1ccc(C(F)(F)F)cc1 [Example 37, 1-cyclobutyl-N-[1-(3-{1-ethyl-5-[4-(trifluoromethyl)phenoxy]-1H-pyrazol-3-yl}phenyl)cyclopropyl] methanesulfonamide], the IC50 [1] was under 200 nM and the IC50 [2] was under 200 nM.
With CCn1nc(-c2cccc(C(C)(C)NS(=O)(=O)CC(F)(F)F)c2)cc1Oc1ccc(C(O)C(C)C)cc1 (centres unmarked) [Example 66, N-[1-(3-{1-ethyl-5-[4-(1-hydroxy-2-methylpropyl)phenoxy]-1H-pyrazol-3-yl}phenyl)-1-methylethyl]-2,2,2-trifluoroethanesulfonamide] the IC50 [1] was under 200 nM and the IC50 [2] was under 200 nM.
Molecule CCn1nc(-c2cccc(C(C)(C)NS(=O)(=O)CC(F)(F)F)c2)cc1Oc1ccc(C(=O)C(F)(F)F)cc1 [Example 73, N-[1-(3-{1-ethyl-5-[4-(trifluoroacetyl)phenoxy]-1H-pyrazol-3-yl}phenyl)-1-methylethyl]-2,2,2-trifluoroethanesulfonamide] has an IC50 [1] of under 200 nM and an IC50 [2] of under 200 nM.
COCCn1nc(-c2cccc(C3(NS(=O)(=O)CC(F)(F)F)COC3)c2)cc1Oc1ccc(C(F)(F)F)cc1 [Example 141, N-(3-{3-[5-(4-trifluoromethylphenoxy)-1-(2-methoxyethyl)-1H-pyrazol-2-yl]phenyl}oxetan-3-yl)-2,2,2-trifluoroethanesulfonamide] showed an IC50 [1] of under 200 nM and an IC50 [2] of under 200 nM.
Molecule CCn1nc(Oc2ccc(C(F)(F)F)cc2)cc1-c1cccc(C(C)(C)NS(=O)(=O)NC)c1 [Example 24, N-[1-(3-{1-ethyl-3-[4-(trifluoromethyl)phenoxy]-1H-pyrazol-5-yl}phenyl)-1-methylethyl]-N′-methylsulfamide] has an IC50 [1] of under 200 nM and an IC50 [2] of under 200 nM.
CCn1nc(-c2cccc(C(C)(C)NS(=O)(=O)CC(F)(F)F)c2)cc1Oc1ccc(C(=O)NCC2CCCO2)cc1 (centres unmarked) [Example 74, 4-({1-ethyl-3-[3-(1-methyl-1-{[(2,2,2-trifluoroethyl)sulfonyl]amino}ethyl)phenyl]-1H-pyrazol-5-yl}oxy)-N-(tetrahydrofuran-2-ylmethyl)benzamide] showed an IC50 [1] of under 200 nM and an IC50 [2] of under 200 nM.
For CCn1nc(-c2cccc(C3(NS(=O)(=O)NC4CC(F)(F)C4)COC3)c2)cc1Oc1ccc(C#N)cc1 [Example 130, N-(3-{3-[5-(4-cyanophenoxy)-1-ethyl-1H-pyrazol-3-yl]phenyl}oxetane-3-yl)-N′-(3,3-difluorocyclobutyl)sulfamide], the IC50 [1] was under 200 nM and the IC50 [2] was under 200 nM.
In the case of CCn1nc(-c2cccc(C(C)(C)NS(=O)(=O)CC(F)(F)F)c2)c(C#Cc2ccccc2)c1Oc1ccc(C(F)(F)F)cc1 [Example 119, N-[2-(3-{1-ethyl-4-(phenylethynyl)-5-[4-(trifluoromethyl)phenoxy]-1H-pyrazol-3-yl}phenyl)propan-2-yl]-2,2,2-trifluoroethanesulfonamide], the IC50 [1] is reported as under 200 nM and the IC50 [2] is reported as under 200 nM.
Work on CCn1nc(-c2cccc(C(C)(C)NS(=O)(=O)CC(F)(F)F)c2)c(Cl)c1Oc1ccc(C(F)(F)F)cc1 [Example 112, N-[2-(3-{4-chloro-1-ethyl-5-[4-(trifluoromethyl)phenoxy]-1H-pyrazol-3-yl}phenyl)propan-2-yl]-2,2,2-trifluoroethanesulfonamide] yielded an IC50 [1] of under 200 nM and an IC50 [2] of under 200 nM.
Work on O=C(Cn1nc(-c2cccc(C3(NS(=O)(=O)CC(F)(F)F)COC3)c2)cc1Oc1ccc(C(F)(F)F)cc1)N1CCOCC1 [Example 133, N-[3-(3-{5-(4-trifluoromethylphenoxy)-1-[2-oxo-2-(morpholin-4-yl)ethyl]-1H-pyrazol-3-yl}phenyl)oxetan-3-yl]- ,2,2,2-trifluoroethanesulfonamide] yielded an IC50 [1] of under 200 nM and an IC50 [2] of under 200 nM.
Molecule Cc1nnc(Cn2nc(-c3cccc(C4(NS(=O)(=O)CC(F)(F)F)COC4)c3)cc2Oc2ccc(C(F)(F)F)cc2)o1 [Example 136, N-(3-{3-[5-(4-trifluoromethylphenoxy)-1-(5-methyl-1,3,4-oxadiazol-2-ylmethyl)-1H-pyrazol-3-yl]phenyl}oxetan-3-yl)-2,2,2-trifluoroethanesulfonamide] has an IC50 [1] of under 200 nM and an IC50 [2] of under 200 nM.
In the case of O=S(=O)(CC(F)(F)F)NC1(c2cccc(-c3cc(Oc4ccc(C(F)(F)F)cc4)n(CC(F)(F)F)n3)c2)CC1 [Example 107, 2,2,2-trifluoro-N-[1-(3-{1-(2,2,2-trifluoroethyl)-5-[4-(trifluoromethyl)phenoxy]-1H-pyrazol-3-yl}phenyl)cyclopropyl]ethanesulfonamide], the IC50 [1] is reported as under 200 nM and the IC50 [2] is reported as under 200 nM.
For CCn1nc(-c2cccc(C3(NS(=O)(=O)NC)COC3)c2)cc1Oc1ccc(C(F)(F)F)cc1 [Example 97, N-[3-(3-{1-ethyl-5-[4-(trifluoromethyl)phenoxy]-1H-pyrazol-3-yl}phenyl)oxetan-3-yl]-N′-methylsulfamide], the IC50 [1] was under 200 nM and the IC50 [2] was under 200 nM.
CCn1nc(-c2cccc(C(C)(C)NS(=O)(=O)CC(F)(F)F)c2)cc1Oc1ccc(C#N)cc1 [Example 108, N-(1-{3-[5-(4-cyanophenoxy)-1-ethyl-1H-pyrazol-3-yl]phenyl}-1-methylethyl)-2,2,2-trifluoroethanesulfonamide] gave an IC50 [1] of under 200 nM and an IC50 [2] of under 200 nM.
With CCn1nc(-c2cccc(C(C)(C)NS(=O)(=O)CC(F)(F)F)c2)cc1Oc1ccc(CNc2cccnc2)cc1 [Example 85, N-{1-[3-(1-ethyl-5-{4-[(pyridin-3-ylamino)methyl]phenoxy}-1H-pyrazol-3-yl)phenyl]-1-methylethyl}-2,2,2-trifluoroethanesulfonamide] the IC50 [1] was under 200 nM and the IC50 [2] was under 200 nM.
